Our source for the EC50, IC50 and inhibition values is US9018214B2, “Bicyclic heterocycle compounds and their uses in therapy” (Astex Therapeutics Limited, priority 2011, dated 2015).

Where a name gives a salt, the structure may show the parent alone. Read-outs that look alike come from different tables or passages of the source. Bounds are passed on as bounds.

Test [1] relates to MDA-MB-231 (human breast carcinoma). Nature of the test: Anti-proliferative activity, Alamar Blue assay, MDA-MB-231. The conditions noted are these: read-out: EC50, inhibition of cell growth. The format is cell-based.
For test [2], the target named is BIR3 domain of human cIAP-1 (residues 267-363) (Homo sapiens (Human), UniProt Q13490). Nature of the test: cIAP-1 in vitro competitive displacement binding assay (fluorescence polarization; Probe A AVPIK(5&6FAM)-amide or Probe B AbuRPFK(5&6FAM)-amide).
For test [3], the target named is BIR3 domain of human XIAP (residues 252-350) (Homo sapiens (Human), UniProt P98170). Nature of the test: XIAP in vitro competitive displacement binding assay (fluorescence polarization). Conditions: for IC50: read-out: IC50 or PI Xiap: IC50; for inhibition at 0.04 µM: 1 h, read-out: IC50 or PI Xiap: PI.
In test [4] the test system is EVSA-T (human breast carcinoma). Nature of the test: Anti-proliferative activity, Alamar Blue assay, EVSA-T. The format is cell-based. The conditions noted are these: Homo sapiens.
The mark [5] stands for this setting: read-out: IC50 or PI cIAP1: IC50.
[6] abbreviates: EVSA-T, 72 h, read-out: EC50, inhibition of cell growth.
Where [7] appears, read: EVSA-T, 72 h, read-out: EVSA-T prolif (EC50).
Where [8] appears, read: MDA-MB-231 cell line, 72 hours, Alamar Blue.
[9] abbreviates: Probe B AbuRPFK(5&6FAM)-amide, read-out: IC50 or PI cIAP1: IC50.
Setting [10] is: EVSA-T cell line, 72 hours, Alamar Blue, read-out: EC50, inhibition of cell growth.
Setting [11] is: EVSA-T, 72 hours, Alamar Blue, read-out: EVSA-T prolif (EC50).

On to `C[C@@H]1CN(CC(=O)N2CC(C)(C)c3cc(F)c(S(=O)(=O)c4ccccc4)cc32)CCN1` [Example 47, 1-(6-Benzenesulfonyl-5-fluoro-3,3-dimethyl-2,3-dihydro-indol-1-yl)-2-((R)-3-methyl-piperazin-1-yl)-ethanone dihydrochloride salt], for which the EC50 in test [1] (MDA-MB-231, 72 h) is under 10 µM; in test [4] (setting [6]), under 10 µM; in test [4] (setting [7]) it was 1.8 µM. Moreover, the half-maximal inhibitory concentration (IC50) is under 1 µM in test [2], 0.39 µM in test [2] (setting [5]) and 0.27 µM in test [3].
For the compound `CC[C@H]1CN[C@H](C)CN1CC(=O)N1CC(C)(C)c2cc(F)c(S(=O)(=O)c3ccccc3)cc21` [Example 48, 1-(6-Benzenesulfonyl-5-fluoro-3,3-dimethyl-2,3-dihydro-indol-1-yl)-2-((2S,5R)-2-ethyl-5-methyl-piperazin-1-yl)-ethanone dihydrochloride salt], the EC50 is under 10 µM in test [1] (MDA-MB-231, 72 h); under 10 µM in test [4] (setting [6]); 0.25 µM in test [4] (setting [7]). In addition, the half-inhibitory concentration (IC50) in test [2] was under 1 µM; in test [2] (setting [5]) it was 0.064 µM; in test [3], 0.097 µM.
Regarding `COC[C@H]1CN[C@H](C)CN1CC(=O)N1CC(C)(C)c2ccc(S(=O)(=O)CC(C)C)cc21` [Example 64, 1-[3,3-Dimethyl-6-(2-methyl-propane-1-sulfonyl)-2,3-dihydro-indol-1-yl]-2-((2R,5R)-2-methoxymethyl-5-methyl-piperazin-1-yl)-ethanone dihydrochloride salt], the concentration giving a half-maximal response (EC50) was under 10 µM in test [1] (MDA-MB-231, 72 h) and 1 µM in test [4] (setting [7]). Further, the figures for the 50% inhibitory concentration (IC50) in test [2] (setting [5]) and in test [3] were 0.14 µM and 0.27 µM, respectively.
With `COC[C@H]1CN[C@H](C)CN1CC(=O)N1CC(C)(C)c2cc(=O)n(Cc3ccccc3)cc21` [Example 67, 6-Benzyl-1-[2-((2R,5R)-2-methoxymethyl-5-methyl-piperazin-1-yl)-acetyl]-3,3-dimethyl-1,2,3,6-tetrahydro-pyrrolo[2,3-c]pyridin-5-one hydrochloride salt], the EC50 is under 10 µM in test [1] (setting [8]), under 10 µM in test [4] (setting [10]) and 0.35 µM in test [4] (setting [11]). Moreover, the half-inhibitory concentration (IC50) is under 1 µM in test [2], 0.017 µM in test [2] (setting [9]) and 0.31 µM in test [3].
`COC[C@H]1CN[C@H](C)CN1CC(=O)N1CC(C)(C)c2cnc(Cc3ccc(Cl)cc3)cc21` [Example 82, 1-[6-(4-Chloro-benzyl)-3,3-dimethyl-2,3-dihydro-pyrrolo[3,2-c]pyridin-1-yl]-2-((2R,5R)-2-methoxymethyl-5-methyl-piperazin-1-yl)-ethanone]: the half-maximal effective concentration (EC50) in test [1] (setting [8]) was under 10 µM; in test [4] (setting [10]) it was under 10 µM; in test [4] (setting [11]) it was 0.034 µM. For the same compound, in test [2] (3 h, Probe B, @ 0.01 μM, read-out: IC50 or PI cIAP1: PI), the inhibition at 0.01 µM was determined as 86%. The 50% inhibitory concentration (IC50) in test [3] was 0.22 µM.
For `COC[C@H]1CN[C@H](C)CN1CC(=O)N1CC(C)(C)c2cnc(Oc3ccccc3C)cc21` [Example 83, 1-(3,3-Dimethyl-6-o-tolyloxy-2,3-dihydro-pyrrolo[3,2-c]pyridin-1-yl)-2-((2R,5R)-2-methoxymethyl-5-methyl-piperazin-1-yl)-ethanone hydrochloride salt], the 50% effective concentration (EC50) in test [1] (setting [8]) was under 10 µM; in test [4] (setting [10]) it was under 10 µM; in test [4] (setting [11]), 2 µM. In addition, the 50% inhibitory concentration (IC50) was under 1 µM in test [2], 0.11 µM in test [2] (setting [9]) and 0.35 µM in test [3].
On to `C=C(c1ccccc1)c1cc2c(cn1)C(C)(C)CN2C(=O)CN1C[C@@H](C)NC[C@@H]1COC` [Example 93, 1-[3,3-Dimethyl-6-(1-phenylethenyl)-1H,2H,3H-pyrrolo[3,2-c]pyridin-1-yl]-2-[(2R,5R)-2-(methoxymethyl)-5-methylpiperazin-1-yl]ethan-1-one, hydrochloride salt], for which the half-maximal effective concentration (EC50) in test [1] (setting [8]) is under 10 µM; in test [4] (setting [11]), 1 µM. Moreover, the half-maximal inhibitory concentration (IC50) in test [2] (setting [9]) is 0.059 µM; in test [3] it was 0.49 µM.
In the case of `COC[C@H]1CN[C@H](C)CN1CC(=O)N1CC(C)(C)c2cnc(C(=O)c3ccccc3)cc21` [Example 96, 1-{6-Benzoyl-3,3-dimethyl-1H,2H,3H-pyrrolo[3,2-c]pyridin-1-yl}-2-[(2R,5R)-2-(methoxymethyl)-5-methylpiperazin-1-yl]ethan-1-one, dihydrochloride salt], the EC50 in test [1] (MDA-MB-231, 72 h) is under 10 µM; in test [4] (setting [6]), under 10 µM; in test [4] (setting [7]), 3 µM. The 50% inhibitory concentration (IC50) stood at 0.077 µM in test [2] (setting [5]) and 0.34 µM in test [3].
As to `COC[C@H]1CN[C@H](C)CN1CC(=O)N1CC(C)(C)c2cnc(Cc3cccc(F)c3)cc21` [Example 97, 1-{6-[(3-Fluorophenyl)methyl]-3,3-dimethyl-1H,2H,3H-pyrrolo[3,2-c]pyridin-1-yl}-2-[(2R,5R)-2-(methoxy-methyl)-5-methyl-piperazin-1-yl]ethan-1-one, hydrochloride salt], the EC50 was under 10 µM in test [1] (setting [8]), under 10 µM in test [4] (setting [10]) and 0.32 µM in test [4] (setting [11]). Further, the figures for the IC50 in test [2] (setting [9]) and in test [3] were 0.017 µM and 0.34 µM, respectively.
In the case of `C[C@@H]1CN(CC(=O)N2CC(C)(C)c3cnc(Cc4ccccc4)cc32)[C@@H](CF)CN1` [Example 121, 1-{6-Benzyl-3,3-dimethyl-1H,2H,3H-pyrrolo[3,2-c]pyridin-1-yl}-2-[(2R,5R)-2-(fluoromethyl)-5-methylpiperazin-1-yl]ethan-1-one hydrochloride], the 50% effective concentration (EC50) is under 10 µM in test [1] (setting [8]) and 0.38 µM in test [4] (setting [11]). The results for the IC50 in test [2] (setting [9]) and in test [3] were 0.021 µM and 0.19 µM, respectively.
Consider `C[C@@H]1CN(CC(=O)N2CC(C)(C)c3cnc(Cc4ccccc4)cc32)[C@@H](C(F)F)CN1` [Example 122, 1-{6-Benzyl-3,3-dimethyl-1H,2H,3H-pyrrolo[3,2-c]pyridin-1-yl}-2-[(2R,5R)-2-(difluoromethyl)-5-methylpiperazin-1-yl]ethan-1-one hydrochloride], for which the figures for the EC50 in test [1] (setting [8]) and in test [4] (setting [11]) were under 10 µM and 0.29 µM, respectively. Also, the IC50 in test [2] (setting [9]) stood at 0.029 µM; in test [3] it was 0.22 µM.
Turning to `COC[C@H]1CN[C@H](C)CN1CC(=O)N1CC(C)(C)c2cnc(Oc3c(F)cccc3F)cc21` [Example 128, 1-[6-(2,6-Difluorophenoxy)-3,3-dimethyl-1H,2H,3H-pyrrolo[3,2-c]pyridin-1-yl]-2-[(2R,5R)-2-(methoxymethyl)-5-methylpiperazin-1-yl]ethan-1-one hydrochloride], the figures for the EC50 in test [1] (setting [8]), in test [4] (setting [10]) and in test [4] (setting [11]) were under 10 µM, under 10 µM and 1.1 µM, respectively. Moreover, the IC50 in test [2] (setting [9]) came to 0.12 µM; in test [3], 0.38 µM.
Turning to `COC[C@H]1CN[C@H](C)CN1CC(=O)N1CC(C)(C)c2cnc(Oc3c(C)cccc3Cl)cc21` [Example 130, 1-[6-(2-Chloro-6-methylphenoxy)-3,3-dimethyl-1H,2H,3H-pyrrolo[3,2-c]pyridin-1-yl]-2-[(2R,5R)-2-(methoxymethyl)-5-methylpiperazin-1-yl]ethan-1-one hydrochloride], the EC50 is under 10 µM in test [1] (setting [8]), under 10 µM in test [4] (setting [10]) and 0.23 µM in test [4] (setting [11]). In addition, the results for the IC50 in test [2] (setting [9]) and in test [3] were 0.044 µM and 0.2 µM, respectively.
Turning to `COC[C@H]1CN[C@H](C)CN1CC(=O)N1CC(C)(c2ccccn2)c2ccc(Cc3ccccc3)cc21` (stereo partly drawn) [Example 144, 1-[6-Benzyl-3-methyl-3-(pyridin-2-yl)-2,3-dihydro-1H-indol-1-yl]-2-[(2R,5R)-2-(methoxymethyl)-5-methylpiperazin-1-yl]ethan-1-one hydrochloride], the 50% effective concentration (EC50) is under 10 µM in test [1] (setting [8]) and 0.73 µM in test [4] (setting [11]). Further, the values for the IC50 in test [2] (setting [9]) and in test [3] were 0.012 µM and 0.24 µM, respectively.
For the compound `COC[C@H]1CN[C@H](C)CN1CC(=O)N1CC(C)(C)c2cnc(-c3cc4ccccc4o3)cc21` [Example 150, 1-[6-(1-Benzofuran-2-yl)-3,3-dimethyl-1H,2H,3H-pyrrolo[3,2-c]pyridin-1-yl]-2-[(2R,5R)-2-(methoxymethyl)-5-methylpiperazin-1-yl]ethan-1-one dihydrochloride], the EC50 in test [1] (MDA-MB-231, 72 h) is under 10 µM; in test [4] (setting [7]) it was 0.73 µM. The values for the IC50 in test [2] (setting [5]) and in test [3] were 0.014 µM and 0.27 µM, respectively.
As for `C[C@@H]1CN(CC(=O)N2CC(C)(C)c3cnc(Oc4ccccc4Cl)cc32)[C@@H](C(=O)N(C)C)CN1` [Example 151, (2R,5R)-1-{2-[6-(2-Chlorophenoxy)-3,3-dimethyl-1H,2H,3H-pyrrolo[3,2-c]pyridin-1-yl]-2-oxoethyl}-N,N,5-trimethylpiperazine-2-carboxamide dihydrochloride], the EC50 is under 10 µM in test [1] (MDA-MB-231, 72 h) and 0.59 µM in test [4] (setting [7]). For the same compound, in test [2] (setting [5]), the IC50 came to 0.019 µM. The inhibition at 0.04 µM in test [3] is 48%.
In the case of `C[C@@H]1CN(CC(=O)N2CC(C)(C)c3cnc(Oc4ccccc4Cl)cc32)[C@@H](CN2CCCC2=O)CN1` [Example 182, 1-{[(2R,5R)-1-{2-[6-(2-Chlorophenoxy)-3,3-dimethyl-1H,2H,3H-pyrrolo[3,2-c]pyridin-1-yl]-2-oxoethyl}-5-methylpiperazin-2-yl]methyl}pyrrolidin-2-one hydrochloride], the EC50 is under 10 µM in test [1] (setting [8]), under 10 µM in test [4] (setting [10]) and 0.067 µM in test [4] (setting [11]). In addition, the inhibition at […] in test [2] (3 h, Probe B, @ 0.012 μM, read-out: IC50 or PI cIAP1: PI) came out at 62%. Besides, the inhibition at 0.04 µM in test [3] (@ 0.04 μM) came to 73%.
